Measurements as given in US20200308548A1, “Amplifying Beta Cell Differentiation with Small Molecules BET (Bromodomain And Extraterminal Family Of Bromodomain-Containing Proteins) Inhibitors” (Centre National de la Recherche Scientifique (CNRS), priority 2016, published 2020).

Columns and labels:
[1] = tested on: genetically modified hESC line that express GFP under the control of the Neurogenin 3 promoter; assay: GFP reporter under Neurogenin 3 promoter in differentiated hESC line; type: cell-based, human; details: three days; 400 nM (+)-JQ1 or 2000 nM IBET-151; vs DMSO
Protocol: (§1) Human induced pluripotent stem cells (iPSC) and human embryonic stem cells (ESC) were cultured on standard tissue culture plastic ware coated with hESC-qualified matrigel in mTeSR1™medium. Cells were passaged every three to four days as single cells using TrypLe Select. Rock inhibitor (5 μM) was included at the first day of passaging. Three different iPSC lines derived from a total of two individual donors and one ESC line were applied.
(§2) For differentiation, cells were seeded as single cells in mTeSR1 with 5 μM Rock inhibitor into tissue culture plates (Corning CellBind) at densities ranging between 300-400.000 cells/cm^2. Cells were cultured for 24 h at 37° C., 5% CO2. Following incubation, medium was aspirated and the cells were washed once in PBS before adding the differentiation medium. Differentiation was carried out essentially as described in Rezania et al. (Rezania et al., 2014b). The differentiation protocol is outlined in FIG. 2A. […]
(§3) Differentiation efficiency was analyzed by flow cytometry essentially as described in van de Bunt et al., 2016. […] Unconjugated antibodies were detected with fluorophore conjugated secondary antibodies.

[2] = tested on: hiPSC-derived pancreatic progenitors; assay: Neurogenin 3 mRNA by qPCR in hiPSC-derived pancreatic progenitors differentiated towards endocrine lineage; type: cell-based, human; details: three days, six different concentrations
Protocol: as §1
as §2, with “medium.” for “medium. Differentiation was carried out essentially as described in Rezania et al. (Rezania et al., 2014b). The differentiation protocol is outlined in FIG. 2A.”
RNA was isolated from cells using NucleoSpin RNA/protein isolation kit (Macherey-Nagel). RNA was quantified using a nanodrop and […] RNA pr. sample was converted to cDNA using iScript reverse transcription kit (Bio-Rad). Gene expression was evaluated using Tagman gene expression assay for Neurogenin 3(Hs01875204, Applied Biosystems).
Neurogenin 3 transcripts were normalized to the average expression of two housekeeping genes (ACTB, Hs01060665_g1 and HPRT1, Hs99999909_m1, both from Applied Biosystems). Relative expression was calculated using the ΔΔCt method (FIGS. 2B and 2C).

[3] = tested on: mouse embryonic pancreatic buds; assay: RT-qPCR of Ngn3, Ins1, Ins2 and MafA in cultured mouse pancreatic buds; type: cell-based; details: for Ngn3 relative mRNA levels: 0.5 μM IBET-151 or 0.1 μM (+)-JQ1, vs DMSO
Protocol: (§4) Mouse pancreatic buds were dissected from E11.5 C57Bl6/J embryos and placed at the air/medium interface on 0.45μm filters in culture dishes containing RPMI medium supplemented with 10% fetal calf serum, 1% penicillin-streptomycin, 1% non-essential amino acids and 10mM HEPES. Pancreatic buds were cultured at 37° C. with 5% CO2.
(§5) IBET-151 was obtained from Sigma-Aldrich and (+)/-JQ1 from Abcam. Stock solutions were prepared in DMSO. Inhibitors or DMSO (0.1% final concentration) were added to the culture medium which was changed daily.
Total RNA from three or more pancreatic buds was extracted using Qiagen RNA extraction microkit and 250ng were reverse transcribed using maxima first strand cDNA synthesis kit from Thermo Fisher. Real-time PCR analysis of Ngn3, MafA and Cyclophylin A were performed in 1× Sybr Green Powermix in QuantStudio 3 Applied Biosystem system. Real-time PCR analysis of Ins1 and Ins2 were performed in 1× TaqMan Gene Expression Mastermix in a QuantStudio 3 Applied Biosystem system. Relative expression of Ngn3, MafA and Cyclophylin A were calculated using the comparative method of relative quantification (2^−ΔΔCT) normalized to cyclophilin A expression. Values represent the average of three experiments with standard deviation error bars. Statistical analysis was performed using unpaired Student t test.

[4] = tested on: mouse embryonic pancreatic buds; assay: NGN3 immunohistochemistry and count of positive nuclei in cultured mouse pancreatic buds; type: cell-based; details: five days culture; 0.5 μM IBET-151 or 0.1 μM (+)-JQ1; vs DMSO
Protocol: as §4, §5
Pancreatic buds were fixed in 3.7% formaldehyde, pre-embedded in agarose gel (4% of type VII low gelling temperature agarose (Sigma-Aldrich)) and embedded in paraffin. Sections (4 μm thick) were collected and processed for 3,3' diaminobenzidine immunohistological staining of NGN3, as previously described (Attali et al., 2007).
Photographs representative of a whole pancreas were taken using a transmitted light microscope (Leitz DMRB, Leica) and digitized using a Hammamatsu cooled 3CCCD camera. Total number of NGN3 positive nuclei per rudiment were then manually counted. Values represent the average of three experiments with standard deviation error bars. Statistical analysis was performed using unpaired Student t test.

[5] = tested on: hiPSC-derived endocrine progenitor cells; assay: Percentage of Neurogenin 3 protein expressing cells by flow cytometry; type: cell-based, human; details: three days; 400 nM (+)-JQ1 or 2000 nM IBET-151; three biological experiments
Protocol: as §1, §2, §3

[6] = tested on: hiPSC-derived pancreatic progenitors; assay: Viability and cell number by Nucleocounter after BET inhibitor treatment; type: cell-based, human; details: three day treatment, all tested concentrations, vs concentration matched DMSO
Protocol: as §1, §2
Viability of the cells and total number of cells was analyzed using a Nucleocounter NC3000 Cell analyzer (Chemometec).

[7] = tested on: hiPSC-derived endocrine progenitor cells; assay: Neurogenin 3 protein by immunofluorescence microscopy; type: cell-based, human; details: three days; 500 nM (+)-JQ1 or 2000 nM IBET-151; vs DMSO
Protocol: as §1, §2

[8] = 5 days with inhibitor (0.5 μM IBET-151 or 0.1 μM (+)-JQ1), then 9 additional days without inhibitor

COc1cc2c(cc1-c1c(C)noc1C)ncc1[nH]c(=O)n([C@H](C)c3ccccn3)c12 [IBET-151]
cells expressing GFP compared to the control [1]: more cells expressing GFP
Neurogenin 3 mRNA expression [2]: dose-dependent increase
concentration at which maximum Neurogenin 3 mRNA expression is achieved [2]: 2000 nM
Ins1 expression increase [3, 8]: 3 fold
Ins2 expression increase [3, 8]: 3 fold
MafA expression increase [3, 8]: 10 folds
Ngn3 relative mRNA levels ([3]; after 3 days of treatment): strongly increased
Ngn3 relative mRNA levels ([3]; after 7 days): remain increased
number of NGN3 positive nuclei [4]: increased
number of cells expressing Neurogenin 3 protein relative to control treated cells [5]: approximately 1.6 fold
cell number compared to controls [6]: No obvious difference
viability compared to controls [6]: No obvious difference
number of cells positive for Neurogenin 3 protein [7]: clear increase
staining intensity of Neurogenin 3 in individual cells [7]: stronger
